Our source for the IC50 values is patent publication US20240092774A1, “HETEROAROMATIC COMPOUNDS AND USES THEREOF” (HUTCHISON MEDIPHARMA LIMITED, priority 2020, published 2024).

Like-named read-outs stand apart in the source and are kept apart here.

In assay [1] the target is Recombinant human CSF1R kinase (Homo sapiens (Human), UniProt P07333). The assay is described as follows: Measurement of CSF1R kinase activity at molecular level (Z-LYTE). Format: biochemical. The settings on record: Z-LYTE Tyr 1 peptide. On the procedure: Invitrogen, PV3227; • Development reagent B: Invitrogen, PV3295; • Development buffer: Invitrogen. P3127; • Stopping solution: Invitrogen, P3094; • Recombinant human CSF1R kinase: Invitrogen, P[…]; • 384 well plate, black: Corning. 3575; • Envision: Perkin Elmer. 2. […] The test compound was diluted in gradient to 4-fold the reaction concentration and the concentration of DMSO was kept at 8%. […] The mixture was mixed gently with a pipette. • 4) A phosphorylated peptide substrate solution (PP solution): 0.4 μL of Z-LYTETM Tyr1 phosphorylated peptide substrate was added to 99.6 μl of 1.33× kinase buffer. • 5) ATP solution: 10 mM of ATP was diluted to 760 μM with 1.33× kinase buffer to prepare ATP solution. • 6) Development solution: Development reagent B was diluted with Development buffer at a ratio of 1:200. 3. […] 2.5 μL of 4× test compound was added to each reaction well of the 384 plate, and the corresponding volume of 8% DMSO was added to the control well. The plate was placed on ice. […] After adding the reaction components, the 384-well plate was sealed and incubated at 25-30° C. for 1 h in dark. 2) Development Reaction 5 μL of Development solution was added to each well, sealed and incubated at 25-30° C. for another 1 h in dark. 3) Reaction Stopping and Plate Reading 5 μL of stopping solution was added to each well. The Coumarin value (excitation at 400 nm, emission at 445 nm) and Fluorescein value (excitation at 400 nm, emission at 520 nm) were measured, respectively. 4. […] Coumarin emission read-out (445 nm)/Fluorescein emission read-out (520 nm); • C3 445 nm: 100% phosphorylated Coumarin emission read-out; • C3 520 nm: 100% phosphorylated Fluorescein emission read-out; • C1 445 nm: 0% phosphorylated Coumarin emission read-out; • C1 520 nm: 0% phosphorylated Fluorescein emission read-out. […] 5. IC50 values: calculated by using software XL-FitTM (version 5.3) supplied by ID Business Solutions (Guildford, UK), which is an additional software to Microsoft Excel.

The target of assay [2] is CSF1R phosphorylation in THP-1 cells (Homo sapiens (Human), UniProt P07333). The assay is described as follows: Detection of CSF1R phosphorylation activity at cell level (p-CSF1R ELISA, M-CSF stimulated THP-1 cells). Format: cell-based. The method, then:
THP-1 (ATCC), human acute monocytic leukemia cells.
3. Treatment of cells and preparation of lysis buffer
5 μL. of the diluted compound was added to the 50 μL cell culture system, the culture was cultured in a 5% CO2, 37° C. cell incubator for 60 min, 300 ng/mL of M-CSF was added to the cells, and the mixture was stimulated in the 37° C. cell incubator for 1 min, added 50 μL of cell lysis buffer, and stored in a refrigerator at −80° C.
100 μL/well of the p-CSF1R capture antibody diluted to 0.8 μg/mL with PBS was added to the ELISA plate, and the plate was coated on a shaker at room temperature overnight. The culture was washed with PBST, and then added blocking solution and incubated at room temperature for 2 h. The culture was washed with PBST, added 90 μL of cell lysis buffer, and incubated on a shaker at 25° C. for 2 h. The plate was washed with PBST three times, added 100 μL of anti-p-tyrosine-HRP detection antibody diluted with 0.1% PBS-BSA diluent, and incubated on a shaker at 25° C. for 2 h. The plate was washed with PBST washing liquid, added 100 μL of chromogenic substrate and incubated at room temperature for 10-20 min. The reaction was stopped by adding 50 μL of 2N H2SO4. The optical density signal (450/570 nm) of each well was detected in Labsystems Multiskan K3 or Envision.
wherein • Drug-treated well read-out: indicating the optical density signal of a cell well with the test compound treatment. • Background read-out: indicating the optical density signal of a well without cells but with cell lysis buffer. • Cell well read-out: indicating the optical density signal of a cell well not treated with the compound.
6. Calculation of IC50: obtained by using XL-Fit 5.3 software, […]

Where [3] appears, read: THP-1 cells, M-CSF stimulation, p-CSF1R ELISA, read-out: IC50.

Chain of CSF1R phosphorylation in THP-1 cells (P07333 20-972): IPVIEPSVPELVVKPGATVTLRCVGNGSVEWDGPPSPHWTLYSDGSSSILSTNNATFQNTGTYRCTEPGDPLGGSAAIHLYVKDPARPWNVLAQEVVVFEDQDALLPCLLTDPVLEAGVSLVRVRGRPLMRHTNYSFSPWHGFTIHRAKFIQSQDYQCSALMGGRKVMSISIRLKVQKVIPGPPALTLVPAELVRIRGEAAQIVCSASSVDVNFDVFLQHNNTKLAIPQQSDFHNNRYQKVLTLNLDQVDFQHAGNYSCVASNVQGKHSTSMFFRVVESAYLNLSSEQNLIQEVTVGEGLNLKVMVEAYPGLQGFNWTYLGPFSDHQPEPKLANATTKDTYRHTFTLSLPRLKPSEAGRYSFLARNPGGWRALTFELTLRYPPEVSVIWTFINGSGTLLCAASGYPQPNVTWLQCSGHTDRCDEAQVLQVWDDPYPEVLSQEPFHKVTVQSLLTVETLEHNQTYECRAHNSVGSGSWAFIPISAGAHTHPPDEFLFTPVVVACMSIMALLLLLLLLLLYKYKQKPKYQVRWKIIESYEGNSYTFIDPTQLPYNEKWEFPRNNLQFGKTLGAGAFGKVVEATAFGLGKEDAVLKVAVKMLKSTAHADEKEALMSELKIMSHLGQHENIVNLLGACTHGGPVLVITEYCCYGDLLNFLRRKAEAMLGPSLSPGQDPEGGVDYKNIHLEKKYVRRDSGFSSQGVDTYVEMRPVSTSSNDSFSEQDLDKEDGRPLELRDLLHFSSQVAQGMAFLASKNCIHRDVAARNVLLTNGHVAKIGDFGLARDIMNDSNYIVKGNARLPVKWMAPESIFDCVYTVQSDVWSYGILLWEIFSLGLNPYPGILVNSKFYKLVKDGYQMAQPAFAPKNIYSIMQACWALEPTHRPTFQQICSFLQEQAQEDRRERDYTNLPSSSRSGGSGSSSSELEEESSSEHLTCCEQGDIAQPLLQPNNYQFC
Chain of Recombinant human CSF1R kinase (P07333 20-972): as above

As for `COc1ccc(COc2ncc(Oc3ccc4ncc(N)c(=O)n4c3)cc2C)cc1` [Compound 33], the 50% inhibitory concentration (IC50) in assay [1] came out at 150 nM.

Consider `Cc1cnc2ccc(Oc3cnc4c(c3)OC[C@H](c3ccc(C5CC5)nc3)O4)cn2c1=O` [Compound 62], for which the IC50 in assay [1] came out at 4 nM; in assay [2] (setting [3]), 0.047 µM. As to `COc1ccc(CCOc2ncc(Oc3ccc4ncc(C)c(=O)n4c3)cc2OC)cc1` [Compound 37], the IC50 in assay [1] was 33 nM; in assay [2] (setting [3]), 0.14 µM. Consider `COc1ccc([C@H]2COc3cc(Oc4ccc5nccc(=O)n5c4)cnc3O2)nc1` [Compound 77], for which, in assay [1], the IC50 is 80 nM.

Turning to `C#Cc1ccc(COc2ncc(Oc3ccc4ncc(C)c(=O)n4c3)cc2OC)cc1` [Compound 7], in assay [1], the IC50 worked out at 15 nM. For the molecule `COc1ccc(COc2ncc(Cc3ccc4ncc(C)c(=O)n4c3)cc2OC)cc1` [Compound 47, 7-((5-methoxy-6-((4-methoxybenzyl)oxy)pyridin-3-yl)methyl)-3-methyl-4H-pyrido[1,2-a]pyrimidin-4-one], the IC50 in assay [1] is 13 nM; in assay [2] (setting [3]), 0.012 µM.

Take `Cc1cnc2ccc(Oc3cnc(OCc4ccc(C5CC5)cc4)c(OCF)c3)cn2c1=O` [Compound 14]: the IC50 in assay [1] was 28 nM; in assay [2] (setting [3]) it was 0.048 µM.

`COc1ccc(COc2ncc(Oc3ccc4ncc(C)c(=O)n4c3)cc2C#N)cc1` [Compound 30]: in assay [1], the IC50 was found to be 460 nM.

With `Cn1cc(-c2cc(Oc3cnc4c(c3)O[C@H](c3ccc(C5CC5)cc3)CO4)ccn2)cn1` (single isomer, unassigned) [Compound 49, (R/S)-2-(4-cyclopropylphenyl)-7-((2-(1-methyl-1H-pyrazol-4-yl)pyridin-4-yl)oxy)-2,3-dihydro-[1,4]dioxino[2,3-b]pyridine], the IC50 in assay [1] came to 23 nM; in assay [2] (setting [3]), 0.06 µM.

Turning to `COc1ccc([C@H]2COc3cc(Oc4ccnc(-c5cnn(C)c5)c4)cnc3O2)nc1` [Compound 81], the IC50 in assay [1] was determined as 10 nM; in assay [2] (setting [3]), 0.032 µM.

In the case of `COc1ccccc1CCOc1ncc(Oc2ccc3ncc(C)c(=O)n3c2)cc1OC` [Compound 38], the IC50 in assay [1] is 24 nM; in assay [2] (setting [3]) it was 0.381 µM. The corresponding values for `COc1cc(Oc2ccc3ncc(C)c(=O)n3c2)cnc1OCc1ccc(C2CC2)cc1` [Compound 21] are 13 nM and 0.008 µM. Regarding `COc1ccc([C@@H]2COc3cc(Oc4ccc5ncc(C)c(=O)n5c4)cnc3O2)cn1` [Compound 86], the results for the IC50 in assay [1] and in assay [2] (setting [3]) were 8 nM and 0.056 µM, respectively. The matching figures for `Cc1cnc2ccc(Oc3cnc4c(c3)OC[C@@H](c3ccc(C5CC5)cn3)O4)cn2c1=O` [Compound 76]: 8 nM and 0.018 µM.

As to `COc1ccc(COc2ncc(Oc3ccc4ncc(C)c(=O)n4c3)cc2C)cc1` [Compound 34], the IC50 in assay [1] stood at 499 nM. Turning to `Cn1cc(-c2cc(Oc3cnc4c(c3)OC[C@H](c3ccc(C5CC5)cn3)O4)ccn2)cn1` [Compound 73], the IC50 in assay [1] came to 6 nM; in assay [2] (setting [3]), 0.017 µM. In the case of `COc1cc(Oc2ccc3ncc(C)c(=O)n3c2)cnc1OCc1ccc(C2CC2)c(F)c1` [Compound 9], the IC50 is 63 nM in assay [1] and 0.006 µM in assay [2] (setting [3]). The matching figures for `COc1ccc([C@@H]2COc3cc(Oc4ccnc(-c5cnn(C)c5)c4)cnc3O2)cn1` [Compound 69]: 3 nM and 0.017 µM.

Take `COc1ccc(COc2ncc(Oc3ccc4ncc(C)c(=O)n4c3)cc2F)cc1` [Compound 20]: the IC50 came to 24 nM in assay [1] and 0.06 µM in assay [2] (setting [3]).

For `O=c1ccnc2ccc(Oc3cnc4c(c3)OC[C@H](c3ccc(C5CC5)nc3)O4)cn12` [Compound 60], the IC50 in assay [1] amounted to 6 nM; in assay [2] (setting [3]), 0.052 µM. The corresponding values for `O=c1ccnc2ccc(Oc3cnc4c(c3)OCC(c3ccc(C5CC5)cc3)O4)cn12` (racemic) [Compound 55, (R/S)-7-((3-(4-cyclopropylphenyl)-2,3-dihydro-[1,4]dioxino[2,3-b]pyridin-7-yl)oxy)-4H-pyrido[1,2-a]pyrimidin-4-one] are 8 nM and 0.007 µM. Turning to `Cc1cnc2ccc(Oc3cnc4c(c3)OC[C@H](c3ccc(C5CC5)cn3)O4)cn2c1=O` [Compound 75], the IC50 amounted to 15 nM in assay [1] and 0.117 µM in assay [2] (setting [3]). Turning to `COc1ccc([C@@H]2COc3cc(Oc4ccc5nccc(=O)n5c4)cnc3O2)cn1` [Compound 85], the figures for the IC50 in assay [1] and in assay [2] (setting [3]) were 17 nM and 0.154 µM, respectively. The corresponding values for `COc1cc(Oc2ccc3c(c2)C2=NCCN2C=N3)cnc1OCc1ccc(C2CC2)cc1` [Compound 17] are 15 nM and 0.018 µM.

On to `COc1ccc(COc2ccc(Oc3ccc4ncc(C)c(=O)n4c3)cn2)cc1` [Compound 1, 7-((6-((4-methoxybenzyl)oxy)pyridin-3-yl)oxy)-3-methyl-4H-pyrido[1,2-a]pyrimidin-4-one], for which the results for the 50% inhibitory concentration (IC50) in assay [1] and in assay [2] (IC50 (μM)) were 10 nM and 0.052 µM, respectively. Turning to `COc1ccc([C@H]2COc3cc(Oc4ccc5nccc(=O)n5c4)cnc3O2)cn1` [Compound 83, (S)-7-((3-(6-methoxypyridin-3-yl)-2,3-dihydro-[1,4]dioxino[2,3-b]pyridin-7-yl)oxy)-4H-pyrido[1,2-a]pyrimidin-4-one], the IC50 in assay [1] was determined as 7 nM; in assay [2] (setting [3]), 0.138 µM.

As for `Cc1cnc2ccc(Oc3ccc(OCc4ccc(F)cc4)nc3)cn2c1=O` [Compound 3], the IC50 in assay [1] amounted to 81 nM. In the case of `Cc1cnc2ccc(Oc3cnc4c(c3)OC[C@@H](c3ccc(C5CC5)nc3)O4)cn2c1=O` [Compound 61], the figures for the IC50 in assay [1] and in assay [2] (setting [3]) were 3 nM and 0.029 µM, respectively. With `COc1ccc([C@@H]2COc3cc(Oc4ccnc(-c5cnn(C)c5)c4)cnc3O2)nc1` [Compound 82], the IC50 in assay [1] was 11 nM; in assay [2] (setting [3]), 0.013 µM.

On to `COc1cc(Oc2ccc3ncc(C4CC4)c(=O)n3c2)cnc1OCc1ccc(C)cc1` [Compound 36], for which the IC50 stood at 21 nM in assay [1] and 0.056 µM in assay [2] (setting [3]). The matching figures for `COc1cc(Oc2ccc3ncc(C)c(=O)n3c2)cnc1OCc1cccc(Cl)c1` [Compound 26]: 6 nM and 0.108 µM. The matching figures for `COc1ccc([C@H]2COc3cc(Oc4ccc5ncc(C)c(=O)n5c4)cnc3O2)cc1` [Compound 66]: 10 nM and 0.056 µM. In the case of `COc1cc(Oc2ccc3ncc(C)c(=O)n3c2)cnc1OCc1ccc(C(C)(C)O)cc1` [Compound 27], the results for the half-maximal inhibitory concentration (IC50) in assay [1] and in assay [2] (setting [3]) were 16 nM and 0.045 µM, respectively. As to `Cc1cnc2ccc(Oc3ccc(OCc4ccc(F)c(Cl)c4)nc3)cn2c1=O` [Compound 4], the IC50 in assay [1] is 129 nM. For the molecule `COc1cc(Oc2ccc3ncn(C)c(=O)c3c2)cnc1OCc1ccc(C2CC2)cc1` [Compound 16], the IC50 in assay [1] came to 22 nM; in assay [2] (setting [3]) it was 0.005 µM. With `COc1cc(Oc2ccc3ncc(C)c(=O)n3c2)cnc1OCc1ccc(C2CC2(F)F)cc1` (stereo not shown) [Compound 15], the IC50 in assay [1] was found to be 10 nM; in assay [2] (setting [3]), 0.015 µM. Consider `COc1cc(Oc2ccc3ncc(C)c(=O)n3c2)cnc1OCc1ccc(Cl)cc1` [Compound 19, 7-((6-((4-chlorobenzyl)oxy)-S-methoxypyridin-3-yl)oxy)-3-methyl-4H-pyrido[1,2-a]pyrimidin-4-one], for which, in assay [2] (setting [3]), the half-inhibitory concentration (IC50) worked out at 0.031 µM.

As to `COc1cc(Oc2ccc3ncc(C)c(=O)n3c2)cnc1OCc1ccc(C(C)(C)C#N)cc1` [Compound 28], the IC50 in assay [1] turned out to be 70 nM.
